Holding throughout (assay): minimal inhibitory concentration (MIC) by two-fold agar-plate dilution method
What all share (assay type): cell-based

The test system of one test is Ps. Aeruginosa 721. To be noted: Pseudomonas aeruginosa, 10^6 viable cells per ml, HI-agar, 37° C., 20 hours. As to the method:
(§1) For the purpose of illustrating of usefulness of the object compound(1) of this invention, the following minimal inhibitory concentrations of some representative compounds against some test strains will be shown.
(§2) The minimal inhibitory concentration (MIC) was determined by the two-fold agar-plate dilution method as described below.
(§3) One loopful of an overnight culture of each test strain in Trypticase-soy broth was streaked on heart infusion agar (HI-agar) containing graded concentrations of representative antibiotic, and the MICs were expressed in terms of μg/ml. after incubation at 37° C. for 20 hours.

The subject of another test is Staph. Aureus 209-P. To be noted: Staphylococcus aureus, 10^8 viable cells per ml, HI-agar, 37° C., 20 hours. As to the method: as §2, §3
The test system of the next test is B. Subtilis ATCC-6633. The settings on record: Bacillus subtilis, ATCC6633, 10^8 viable cells per ml, HI-agar, 37° C., 20 hours. As for the experimental part:
as §2, §3

For another test, the system named is Sal. Enteritidis. The settings on record: Salmonella enterica, 10^8 viable cells per ml, HI-agar, 37° C., 20 hours. As to the method:
as §2, §3

The subject of a further test is Sh flexneri 2a. The settings on record: 20 h. As to the method:
as §1, §2, §3

A further test deals with Ps. Aeruginosa. The settings on record: Pseudomonas aeruginosa. As for the experimental part:
as §2, §3

The mark [1] stands for this setting: Sal. Enteritidis, first part of table.
The mark [2] stands for this setting: Ps. Aeruginosa, 10^6 viable cells per ml, HI-agar, 37° C., 20 hours, read-out: MIC.
Where [3] appears, read: ENTERITIDIS, Sal. Enteritides, second part of table.

Each structure is given as a SMILES string. Converted amounts (≈) assume the structure as drawn. Where two headings read alike, the source gives them in different places.

Consider `Cn1nnnc1SCC1=C(C(=O)O)N2C(=O)C(NC(=O)[C@H](NC(=O)Cc3cc(=O)[nH]c(=N)[nH]3)c3ccccc3)C2SC1` (some centres unmarked) [Example 1-16], for which it took 1.56 µg/mL (≈ 2.55 µM) to inhibit growth in the test on Ps. Aeruginosa 721 (MIC).

For `Cn1nnnc1SCC1=C(C(=O)O)N2C(=O)C(NC(=O)[C@H](NC(=O)N3CCOC3=O)c3ccccc3)[C@H]2SC1` (stereo partly drawn) [Example 1-10, 7-[D-2-(2-oxo-3-oxazolidinecarboxamido)-2-phenylacetamido]-3-(1-methyl-1H-tetrazol-5-ylthiomethyl)-3-cephem-4-carboxylic acid], the MIC with Ps. Aeruginosa 721 amounted to 0.39 µg/mL (≈ 0.679 µM); with Staph. Aureus 209-P, 0.78 µg/mL (≈ 1.36 µM); with B. Subtilis ATCC-6633, 0.2 µg/mL (≈ 0.348 µM); against Sal. Enteritidis (setting [1]) it was 0.78 µg/mL (≈ 1.36 µM).

As for `Cn1nnnc1SCC1=C(C(=O)O)N2C(=O)C(NC(=O)[C@H](NC(=O)N3CCOC3=O)c3ccc(O)cc3)[C@H]2SC1` (stereo partly drawn) [Example 2-1, 7-[D-2-(2-oxo-3-oxazolidinecarboxamido)-2-(4-hydroxyphenyl)acetamido]-3-(1-methyl-1H-tetrazol-5-ylthiomethyl)-3-cephem-4-carboxylic acid], in the test on Ps. Aeruginosa 721, the MIC was 0.39 µg/mL (≈ 0.66 µM).

As for `Cc1[nH]cc(OCC(=O)N[C@@H](C(=O)NC2C(=O)N3C(C(=O)[O-])=C(CSc4nnnn4C)CS[C@H]23)c2ccccc2)c(=O)c1Cl.[Na+]` (stereo partly drawn) [Example 1-31, sodium 7-{D-2-[2-(4-oxo-5-chloro-6-methyl-1,4-dihydropyridin-3-yloxy)acetamido]-2-phenylacetamido}-3-(1-methyl-1H-tetrazol-5-ylthiomethyl)-3-cephem-4-carboxylate], the MIC with Sh flexneri 2a is 0.2 µg/mL; with Staph. Aureus 209-P it was 1.56 µg/mL; against Ps. Aeruginosa (20 h), 0.78 µg/mL; with B. Subtilis ATCC-6633, 0.78 µg/mL; in the test on Sal. Enteritidis (setting [1]), 0.39 µg/mL.

In the case of `Cn1nnnc1SCC1=C(C(=O)O)N2C(=O)C(NC(=O)[C@H](NC(=O)COc3c[nH]c(CCl)cc3=O)c3ccccc3)C2SC1` (stereo partly drawn) [Example 1-35, 7-{D-2-[2-(4-oxo-6-chloromethyl-1,4-dihydropyridin-3-yloxy)acetamido]-2-penylacetamido}-3-(1-methyl-1H-tetrazol-5-ylthiomethyl)-3-cephem-4-carboxylicacid], the results for the MIC in the test on Sh flexneri 2a, in the test on Ps. Aeruginosa (setting [2]) and in the test on Sal. Enteritidis (setting [3]) were 0.39 µg/mL (≈ 0.59 µM), 0.78 µg/mL (≈ 1.18 µM) and 0.39 µg/mL (≈ 0.59 µM), respectively.

Turning to `Cn1nnnc1SCC1=C(C(=O)O)N2C(=O)C(NC(=O)[C@H](NC(=O)c3cc(Cl)n[nH]c3=O)c3ccccc3)[C@H]2SC1` (stereo partly drawn) [Example 1-20, 7-[D-2-(3-oxo-6-chloro-2,3-dihydro-4-pyridazinecarboxamido)-2-phenylacetamido]-3-(1-methyl-1H-tetrazol-5-ylthiomethyl)-3-cephem-4-carboxylic acid], the minimum inhibitory concentration (MIC) in the test on Ps. Aeruginosa 721 stood at 0.78 µg/mL (≈ 1.26 µM).

The compound `Cn1nnnc1SCC1=C(C(=O)O)N2C(=O)C(NC(=O)[C@H](NC(=O)c3nonc3O)c3ccccc3)[C@H]2SC1` (stereo partly drawn) [Example 1-1, 7-[D-2-(4-hydroxy-3-furazancarboxamido)-2-phenylacetamido]-3-(1-methyl-1H-tetrazol-5-ylthiomethyl)-3-cephem-4-carboxylic acid] registered an MIC in the test with Ps. Aeruginosa 721 of 0.39 µg/mL (≈ 0.68 µM).

As to `Cn1nnnc1SCC1=C(C(=O)O)N2C(=O)C(NC(=O)[C@H](NC(=O)c3cnc4ccccn4c3=O)c3ccccc3)C2SC1` (stereo partly drawn) [Example 1-6, 7-[D-2-(4-oxo-4H-pyrido[1,2-a]pyrimidine-3-carboxamido)-2-phenylacetamide]-3-(1-methyl-1H-tetrazol-5-ylthiomethyl)-3-cephem-4-carboxylic acid], in the test on Ps. Aeruginosa 721, the MIC amounted to 1.56 µg/mL (≈ 2.46 µM).

For the compound `Cn1nnnc1SCC1=C(C(=O)O)N2C(=O)C(NC(=O)[C@H](NC(=O)COc3c[nH]c(CO)c(Cl)c3=O)c3ccccc3)[C@H]2SC1` (stereo partly drawn) [Example 1-34, 7-{D-2-[2-(4-oxo-5-chloro-6-hydroxymethyl-1,4-dihydropyridin-3-yloxy)-acetamido]-2-phenylacetamido}-3-(1-methyl-1H-tetrazol-5-ylthiomethyl)-3-cephem-4-carboxylic acid], the MIC was found to be 0.2 µg/mL (≈ 0.295 µM) against Sh flexneri 2a, 0.78 µg/mL (≈ 1.15 µM) in the test on Ps. Aeruginosa (setting [2]) and 0.2 µg/mL (≈ 0.295 µM) against Sal. Enteritidis (setting [3]).

In the case of `Cc1cc(=O)c(OCC(=O)N[C@@H](C(=O)NC2C(=O)N3C(C(=O)O)=C(CSc4nnnn4C)CSC23)c2ccccc2)c[nH]1` (stereo partly drawn) [Example 1-36, 7-{D-2-[2-(4-oxo-6-methyl-1,4-dihydropyridin-3-yloxy)acetamido]-2-phenylacetamido}-3-(1-methyl-1H-tetrazol-5-ylthiomethyl)-3-cephem-4-carboxylic acidm], the MIC was 0.39 µg/mL (≈ 0.622 µM) in the test with Sh flexneri 2a, 1.56 µg/mL (≈ 2.49 µM) with Ps. Aeruginosa (setting [2]) and 0.78 µg/mL (≈ 1.24 µM) against Sal. Enteritidis (setting [3]).

`Cc1[nH]cc(OCC(=O)N[C@@H](C(=O)NC2C(=O)N3C(C(=O)O)=C(CSc4nnnn4C)CSC23)c2ccc(O)cc2)c(=O)c1Cl` (stereo partly drawn) [Example 1-37, 7-{D-2-[2-(4-oxo-5-chloro-6-methyl-1,4-dihydropyridin-3-yloxy)acetamido]-2-(4-hydroxy)phenylacetamido} -3-(1-methyl-1H-tetrazol-5-ylthiomethyl)-3-cephem-4-carboxylic acid]: the MIC in the test with Sh flexneri 2a amounted to 0.1 µg/mL (≈ 0.148 µM); in the test on Ps. Aeruginosa (setting [2]), 0.78 µg/mL (≈ 1.15 µM); in the test on Sal. Enteritidis (setting [3]) it was 0.05 µg/mL (≈ 0.0738 µM).

What is called MIC is the lowest concentration that inhibits growth of the organism.

The record behind these values is patent US4172198A, “7-(N-substituted-2-phenylglycinamido)-3-sub stituted-3-cephem-4-carboxylic acid compounds and preparation thereof” (Fujisawa Pharmaceutical Co., Ltd., priority 1976, dated 1979).
